Data as given in patent US20200172974A1, “BIOMARKER FOR ANTI-TNF THERAPY IN RETINAL DISEASES” (HADASIT MEDICAL RESEARCH SERVICES & DEVELOPMENT LTD., priority 2017, published 2020).

Legend:
[1] = tested on: choroidal neovascularization (CNV); assay: Laser-induced model of CNV (LI-CNV); assay type: in vivo, Long-Evans rats; settings: flat mounts 10 days after laser injury
Method: Long-Evans rats (8-12 weeks old) were used to generate LI-CNV. Animals were treated in accordance to the guidelines of ARVO. Experiments were conducted with the approval of the institutional animal care ethics committee. Before each procedure, rats were anesthetized by intraperitoneal injections of a mixture of 85% ketamine (Bedford Laboratories, Bedford, Ohio) and 15% xylazine (VMD, Arendonk, Belgium). Topical anesthesia (Oxybuprocaine HCL 0.4%; Fisher Pharmaceuticals, Tel-Aviv, Israel) was applied to each eye 10 minutes before intravitreal injections or laser photocoagulation.
Laser burns (5-7 burns per eye) were generated. Intravitreal injections of all compounds were performed using a PLI-100 Pico-Injector (Medical System Corp., Greenvale, N.Y.) two days following the laser to allow for CNV development, and every 2 days thereafter for a total of 10 days. iMfs were injected only once, two days after laser injury was performed.
Experimental groups included: 4 μl of PBS, 1 μl of 100 μg/μl infliximab, 1 μl of 100 μg/μl aflibercept, 1 μl of 100 μg/μl infliximab with 1×10^5 M(IFNγ and LPS) suspended in 4 μl of PBS; 1 μl of 100 μg/μl aflibercept with 1×10^5 M(IFNγ and LPS) suspended in 4 μl of PBS; and 1×10^5 M(IFNγ and LPS) suspended in 4 μl of PBS, for a total of 5 experimental groups and 1 control group. Each experimental group included 8 injected eyes of 4 rats. The compound dosage was previously described (Xu et al., (2008)). Antibiotic ointment (5% Chloramphenicol) was applied after every injection. Choroid-RPE and retinal flat mounts were prepared 10 days following the laser injury.
RPE-choroidal flat-mounts were fixated for one hour in 4% PFA and suspended overnight in isolectin solution (GS-Ib4 Alexa 594 staining solution, Molecular Probes, Eugene, Oreg.) containing 200 mM NaN3 and 1 mM CaCl2). Flat mounts were then washed 6 times for 20 minutes in PBS and embedded on a slide with a mounting medium. The CNV area around each laser injury was measured using the ImageJ software.

[2] = tested on: choroidal sprouting (choroid-sclera complex with RPE in Matrigel); assay: Choroid-sprouting assay (CSA), ex-vivo angiogenesis assay; assay type: cell-based, C57/BL6J mice; settings: fixed after 8 days
Method: Cytokines were added to the media based on the maximal level of each cytokine via ELISA of M(IFNγ and LPS)-derived media. Five (5) cytokines were tested (n=8; replicates for each cytokine): 0.25 ng/μl VEGF, 0.5 ng/μl IL-8, 2.5 ng/μl IL-6, 0.05 ng/μl IL-1β, and 0.8 5 ng/μl TNFα (PeproTech, Rocky Hill, N.J., USA). Anti-TNF (infliximab, 100 μg/μl Remsima, Celltrion Inc., South Korea) and anti-VEGF (Aflibercept, 40 μg/μl, Bayer Pharma AG, Berlin, Germany), with or without iMfs' supernatant were also studied in the CSA. Compounds' concentrations were based on previous studies (Grattendick et al., (2008)). Controls included medium-treated CSA and iMfs' supernatant treated CSA.
C57/BL6J 4-6 weeks old mice, treated in accordance with the guidelines of the Association for Research in Vision and Ophthalmology (ARVO), were utilized to generate the CSA. Experiments were conducted with the approval of the institutional animal care ethics committee. Five (5) minutes after injecting with ketamine, animals were evaluated for responses and euthanized by cervical dislocation. Eyes were immediately enucleated and kept in ice-cold ECGS medium containing 100 units/ml penicillin-streptomycin and 1% glutamine before dissection. A choroid-sclera complex from the mice was gently dissected along with retinal pigment epithelium (RPE). The complex was cut into 5-6 1 mm long pieces. Fragments were embedded in 30 μl of growth factor-reduced-Matrigel™ (BD Biosciences, Cat. 354230) in 24-well plates. The thickness of the Matrigel™ was approximately 0.4 mm. Plates were then incubated for 10 minutes in 37° C., in a 5% CO2 cell culture incubator without medium to solidify the Matrigel™. Five hundred (500) μl of medium containing ECGM (C-22010, Promocell, Germany) 2.5% supplement mix (C-9215, Promocell, Germany), 5% FCS, 100 units/ml penicillin-streptomycin, and 1% glutamine, was added to each well. For the experimental groups containing the iMfs' supernatant, the medium was replaced with 250 μl of iMfs' supernatant. Medium for each well was changed every 3 days, and the cultures were fixed with 4% PFA after 8 days. Cultures were viewed with an inverted phase-contrast CKX41 Olympus microscope, and images were photographed with an Olympus DP70 digital camera (Olympus, Tokyo, Japan).
ImageJ software was used for sprouting area quantification. Sprouting area was selected by the software and measured after excluding the choroid tissue. Background (control well, for each plate, supplemented with medium only) was subtracted and analysis was performed for each sample. Ratios of each well of experimental group and its relative control from the same eye were calculated and averaged with its replicates.

[3] = intravitreal injection together with 1×10^5 M(IFNγ and LPS) iMfs
[4] = intravitreal injection, substance alone, compared to PBS
[5] = substance added alone to CSA medium, cytokines at maximal level found in M(IFNγ and LPS) media, infliximab 100 μg/μl

Substance	Mean of CNV size±SEM [1, 3]	Mean of CNV size±SEM [1, 4]	Mean of relative ratio between treated and untreated wells±SEM (sprouting area) [2, 5]	Mean of relative ratio between treated and untreated wells±SEM (sprouting area) ([2]; with M(IFNγ and LPS)s' supernatant)
Aflibercept [anti-VEGF]	0.02±0.001	0.024±0.002	–	–
IL-1β: recombinant cytokine (PeproTech), 0.05 ng/μl	–	–	0.8±0.2	–
IL-6: recombinant cytokine (PeproTech), 2.5 ng/μl	–	–	0.64±0.1	–
IL-8: recombinant cytokine (PeproTech), 0.5 ng/μl	–	–	0.47±0.14	–
TNFα	–	–	> 1.6±0.2	–
VEGF	–	–	0.86±0.08	–
infliximab [anti-TNF]	> 0.036±0.004	0.045±0.005	1.14±0.06	> 1.06±0.04
